Measured values: patent publication US20160220464A1 (WUHAN OPTICS VALLEY BRIDGEBIOMED INTERNATIONAL CORPORATION, priority 2013, published 2016)
Where two headings read alike, the source gives them in different places. Where no end group is shown, it is not given here.

Experiments:
Assay type in all cases: cell-based
[1] = target: T1, bradykinin (BK) B2 receptors (Homo sapiens, UniProt P30411); experiment: PG secretion by BK B2 receptor agonists (PG kit, OD), EC50 and Emax; conditions: HASMC; for EC50: 1 h incubation at 37° C.
T1 construct: The cell strains used in the study were human primary vein endothelial cells (HPVEC) and human aortic smooth muscle cells (HASMC); endogenous in cells; host or cells: human primary vein endothelial cells (HPVEC) and human aortic smooth muscle cells (HASMC)
T1 sequence (P30411 1-391): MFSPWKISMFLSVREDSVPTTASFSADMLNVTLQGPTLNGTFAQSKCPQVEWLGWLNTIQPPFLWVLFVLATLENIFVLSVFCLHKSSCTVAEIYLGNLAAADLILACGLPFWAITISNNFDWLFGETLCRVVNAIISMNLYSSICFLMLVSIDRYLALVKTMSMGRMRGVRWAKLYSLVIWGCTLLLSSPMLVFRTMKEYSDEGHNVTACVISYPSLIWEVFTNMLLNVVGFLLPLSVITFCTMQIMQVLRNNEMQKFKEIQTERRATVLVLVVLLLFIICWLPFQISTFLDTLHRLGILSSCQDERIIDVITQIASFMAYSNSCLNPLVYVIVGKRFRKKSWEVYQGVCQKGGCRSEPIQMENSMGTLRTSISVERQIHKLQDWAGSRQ
Protocol: Implantation Two cell lines were transferred into T-75 cell culture flask, and then the instructions of PG kit were strictly followed when cells have reached the appropriate density. Day 1 Cells were seeded in 24 well dishes with minimum medium and allowed to adhere overnight. Day 2 Cells were starved in the serum-free conditioned medium. Day 3 Minimum medium were used, and YLB-01, YLB-02 and YLB-03 were added to the medium, in which the concentration was 0.1 nM, 1 nM, 10 nM, 30 nM, 100 nM, 300 nM, 1 μM, 3 μM and 10 μM, respectively; the cells were incubated at 37° C. for 1 h. The supernatant was collected after incubation for later use. Day 4 24 well dishes were washed and then dyed for 45-90 min, and then the OD value was measured for analysis. The cell strains used in the study were human primary vein endothelial cells (HPVEC) and human aortic smooth muscle cells (HASMC).

BK B2 receptor = target: T2, BK B2 receptor (Homo sapiens, UniProt P30411); experiment: Relative amount of PG secretion in cell supernatant by enzyme immunoassay (EIA); conditions: 1 h, 1 μM BK set as 100%; for activation at 0.0001 µM: 0.1 nM; for activation at 0.001 µM: 1 nM; for activation at 0.01 µM: 10 nM; for activation at 0.03 µM: 30 nM; for activation at 0.1 µM: 100 nM; for activation at 0.3 µM: 300 nM
T2 construct: The cell strains used in the study were human primary vein endothelial cells (HPVEC) and human aortic smooth muscle cells (HASMC); endogenous in cells; host or cells: human primary vein endothelial cells (HPVEC) and human aortic smooth muscle cells (HASMC)
T2 sequence (P30411 1-391): T1 sequence (P30411 1-391)
Protocol: YLB-01, YLB-02 and YLB-03 were selected for the study as described below in Table 1, and BK was used as control. Implantation Two cell lines were transferred into T-75 cell culture flask, and then the instructions of PG kit were strictly followed when cells have reached the appropriate density. Day 1 Cells were seeded in 24 well dishes with minimum medium and allowed to adhere overnight. Day 2 Cells were starved in the serum-free conditioned medium. […] The supernatant was collected after incubation for later use. Day 4 24 well dishes were washed and then dyed for 45-90 min, and then the OD value was measured for analysis. […] In order to detect endogenous prostaglandin, enzyme immunoassay (EIA) was used to determine the amount of prostaglandin and subtypes thereof in the cell supernatant described above.

B2 receptor = target: T3, B2 receptor (Homo sapiens, UniProt P30411); experiment: Relative PG secretion with B2 receptor inhibitor HOE-140; conditions: 1 μM BK set as 100%
T3 construct: The cell strains used in the study were human primary vein endothelial cells (HPVEC) and human aortic smooth muscle cells (HASMC); endogenous in cells; host or cells: human primary vein endothelial cells (HPVEC) and human aortic smooth muscle cells (HASMC)
T3 sequence (P30411 1-391): T1 sequence (P30411 1-391)
Protocol: Two different cell lines were transferred into T-75 cell culture flask, and then the instructions of PG kit were strictly followed when cells have reached the appropriate density. Day 1. Cells were seeded in 24 well dishes with minimum medium and allowed to adhere overnight. Day 2. Cells were starved in the serum-free conditioned medium. Day 3. […] Cells were incubated at 37° C. for 1 h. The supernatant was collected after incubation for later use. Day 4. 24 well dishes were washed and then dyed for 45-90 min, and then the quantitative analysis was carried out.

[2] = system: human aortic smooth muscle cells (HASMC); experiment: PG subtype secretion by EIA in HASMC; conditions: 10 nM, 1 μM BK set as 100%
[3] = system: human primary vein endothelial cells (HPVEC); experiment: PG subtype secretion by EIA in HPVEC; conditions: 10 nM, 1 μM BK set as 100%
Protocol: In order to study of prostaglandin subtypes secretion triggered by activation of B2 receptor by these three compounds, human primary vein endothelial cells (HPVEC) and human aortic smooth muscle cells (HASMC) were used for PG secretion, following the same protocol above; 10 nM of these compounds, YLB-1, YLB-2, YLB-3 was added. […] These percentage values above were all calibrated with respect to bradykinin.

Row | Molecule | EC50 [1] [nM] | Emax ([1]; relative to BK, read-out: Emax) [%] | Emax ([1]; relative to BK) [%] | activation at 0.0001 µM (BK B2 receptor) [%] | activation at 0.001 µM (BK B2 receptor) [%] | activation at 0.01 µM (BK B2 receptor) [%] | activation at 0.03 µM (BK B2 receptor) [%] | activation at 0.1 µM (BK B2 receptor) [%] | activation at 0.3 µM (BK B2 receptor) [%] | activation at 1 µM (BK B2 receptor) [%] | activation at 3 µM (BK B2 receptor) [%] | activation at 10 µM (BK B2 receptor) [%] | Relative PG Secretion Amount with 1 μM HOE-140 (B2 receptor; agonist 0.1 nM + HOE-140 1 μM) [%] | Relative PG Secretion Amount with 1 μM HOE-140 (B2 receptor; agonist 1 nM + HOE-140 1 μM) [%] | Relative PG Secretion Amount with 1 μM HOE-140 (B2 receptor; agonist 10 nM + HOE-140 1 μM) [%] | Relative PG Secretion Amount with 1 μM HOE-140 (B2 receptor; agonist 30 nM + HOE-140 1 μM) [%] | Relative PG Secretion Amount with 1 μM HOE-140 (B2 receptor; agonist 100 nM + HOE-140 1 μM) [%] | Relative PG Secretion Amount with 1 μM HOE-140 (B2 receptor; agonist 300 nM + HOE-140 1 μM) [%] | Relative PG Secretion Amount with 1 μM HOE-140 (B2 receptor; agonist 1 μM + HOE-140 1 μM) [%] | Relative PG Secretion Amount with 1 μM HOE-140 (B2 receptor; agonist 3 μM + HOE-140 1 μM) [%] | also measured
1 | CNC(=O)N1CCN(CCC(=O)NCC(=O)N(C)c2ccc(Cl)c(COc3cccc4c3nc(OC)n4Cc3ccccn3)c2Cl)CC1 [YLB-03, 4-{2-[({[2,4-Dichloro-3-(2-methoxy-1-pyridin-2-ylmethyl-1H-benzoimidazol-4-yloxymethyl)-phenyl]-methyl-carbamoyl}-methyl)-carbamoyl]-ethyl}-piperazine-1-carboxylic acid methylamide] | 26.2 ± 2.87 | 103 | 103.48 ± 9.06 | 0.44 ± 1.22 | 10.3 ± 2.3 | 47.3 ± 4.22 | ~55 | 71 ± 4.57 | 86.2 ± 8.51 | 85 ± 4.83 | 95.6 ± 7.21 | 103 ± 9.06 | 0.54 ± 3.59 | 2.65 ± 3.81 | 5.64 ± 4.05 | 4.90 ± 4.83 | 3.97 ± 2.75 | 0.48 ± 3.50 | 5.14 ± 2.67 | 7.33 ± 4.12 | Relative PG Secretion Amount with 1 μM HOE-140 (B2 receptor; agonist 10 μM + HOE-140 1 μM): 26.08 ± 7.56%; PGD2 [2]: undetectable; PGE2 [2]: 27.83 ± 10.66%; PGF-2a [2]: 8.43 ± 3.57%; PGD2 [3]: undetectable; PGE2 [3]: 31.04 ± 8.49%; PGF-2a [3]: undetectable
2 | RPPGFSPFR [BK, Bradykinin, reference compound] |  |  |  |  |  |  |  |  |  |  |  |  |  |  |  |  |  |  |  |  | Emax [1]: 101 ± 5.5%
3 | COc1nc2c(OCc3c(Cl)ccc(N(C)C(=O)CNC(=O)CCc4ccc(NC(C)=O)nc4)c3Cl)cccc2n1Cc1ccccn1 [YLB-02] | 40.6 ± 4.19 | 70 | 70.44 ± 5.06 | 0 | 15.2 ± 3.36 | 26.4 ± 6.06 | ~40 | 65.6 ± 8.1 | 67.3 ± 7.02 | 66.9 ± 8.11 | 70.4 ± 5.06 | 65.5 ± 5.78 | 3.65 ± 2.77 | 0.21 ± 4.42 | 5.60 ± 3.43 | 3.33 ± 1.88 | 0.43 ± 4.16 | 1.05 ± 2.39 | 2.87 ± 3.04 | 4.25 ± 2.06 | Relative PG Secretion Amount with 1 μM HOE-140 (B2 receptor; agonist 10 μM + HOE-140 1 μM): 10.1 ± 4.43%; PGD2 [2]: undetectable; PGE2 [2]: 26.33 ± 6.78%; PGF-2a [2]: 7.1 ± 3.41%; PGD2 [3]: undetectable; PGE2 [3]: 34.15 ± 9.54%; PGF-2a [3]: undetectable
